From the NIST ThermoML archive (doi:10.1021/je030196t)

How the values were obtained:
[1] = xn = mol fraction of the nth substance listed; conditions: 101.3 kPa, Liquid
[2] = refractive index (Na D-line) (dimensionless); xn = mol fraction of the nth substance listed; conditions: 303.15 K, 101.3 kPa, Liquid
[3] = refractive index (Na D-line) (dimensionless); conditions: 303.15 K; 101.33 kPa; Liquid
[4] = 101.3 kPa, Liquid

O [water] + C1CCOC1
[1], x1 = 1
Conditions | mass density [kg/m3] | viscosity [mPa·s]
303.15 K | – | 0.754
313.15 K | 991.91 | 0.624
323.15 K | 985.7 | 0.544

Conditions | refractive index
[2], x1 = 1 | 1.3326

C1COCCO1 [1,4-dioxane]
Conditions | refractive index
[3] | 1.4181

[4]
Conditions | mass density [kg/m3] | viscosity [mPa·s]
303.15 K | 1024.63 | 1.022
313.15 K | 1013.3 | 0.871
323.15 K | 1001.9 | 0.807

O [water] + C1COCCO1
Conditions | mass density [kg/m3]
[1], 313.15 K, x1 = 1 | 992.3

Conditions | refractive index
[2], x1 = 1 | 1.3326

C1CCOC1 [tetrahydrofuran] + O
[1]
Conditions | mass density, 303.15 K [kg/m3] | mass density, 313.15 K [kg/m3] | mass density, 323.15 K [kg/m3] | viscosity, 303.15 K [mPa·s] | viscosity, 313.15 K [mPa·s] | viscosity, 323.15 K [mPa·s]
x2 = 0 | 876.6 | 865.65 | 854.3 | 0.463 | 0.4 | 0.372
x2 = 0.3081 | 894.98 | 884.04 | 872.9 | 0.574 | 0.519 | 0.34
x2 = 0.5004 | 912.11 | 901.53 | 890.7 | 0.793 | 0.668 | 0.578
x2 = 0.6319 | 927.1 | 916.82 | 901.63 | 1.001 | 0.833 | 0.698
x2 = 0.7276 | 941.82 | 931.96 | 921.9 | 1.208 | 0.98 | 0.807
x2 = 0.8002 | 955.23 | 945.99 | 936.5 | 1.344 | 1.061 | 0.868
x2 = 0.8573 | 966.73 | 958.34 | 949.3 | 1.384 | 1.084 | 0.871
x2 = 0.9034 | 977.2 | 969.74 | 962.2 | 1.341 | 1.021 | 0.829
x2 = 0.9413 | 984.94 | – | 972.7 | 1.226 | 0.92 | 0.74
x2 = 0.973 | 990.31 | 990.31 | 980.8 | 1.003 | 0.803 | 0.641

[2]
Conditions | refractive index
x2 = 0 | 1.4048
x2 = 0.3523 | 1.3994
x2 = 0.5503 | 1.3946
x2 = 0.6772 | 1.387
x2 = 0.7654 | 1.3786
x2 = 0.8304 | 1.3684
x2 = 0.8801 | 1.3613
x2 = 0.9195 | 1.3546
x2 = 0.9514 | 1.3405
x2 = 0.9778 | 1.3386
